Reference: publication PMC10589313 (Nature Communications, 2023)
“And” between values parts separate entries of the source, which are not always exact repeats. Identical values can stand only once. One block for each molecule: values may come before it.

Tests used:
[1] = target: T1, human wild-type H4R (Homo sapiens, UniProt Q9H3N8); assay: TGFα shedding assay, wild-type H4R; format: cell-based; conditions: WT H4R; AP-TGFα release; read-out: Emax (%) mean ± SEM
T1 construct: a mutant H4R (human, full-length, and untagged); expressed in transfected cells; host or cells: HEK293A
Protocol: (§1) The mutants were prepared using the primers listed in Supplementary Table 2. […] The chimeric Gαq/i1 subunit comprises the Gαq backbone and Gαi1-derived six-amino acid C-terminus and couples with Gi-coupled H4R but induces a Gq-dependent TGFα shedding response. After culturing for 1 day and incubating at 37 °C in a 5% CO2 incubator, the transfected cells were harvested by trypsinization, neutralized with Dulbecco’s modified Eagle’s medium containing 10% fetal calf serum (FCS) and penicillin–streptomycin, washed once with Hank’s balanced salt solution (HBSS) containing 5 mM of HEPES (pH 7.4), and resuspended in 6 mL of the HEPES-containing HBSS. The cell suspension was seeded into a 96-well plate at a volume of […] per well (typically, 48 wells per transfected cells) and incubated for 30 min in the CO2 incubator. Test compounds (10×, diluted in 0.01% BSA and 5 mM of HEPES-containing HBSS, […] volume) were added to duplicate wells and incubated for 1 h. After centrifugation, the conditioned medium ([…]) was transferred to an empty 96-well plate. AP reaction solution [10 mM of p-nitrophenylphosphate (p-NPP), 120 mM of Tris–HCl (pH 9.5), 40 mM of NaCl, and 10 mM of MgCl2] was dispensed into the cell culture plates and plates containing conditioned media ([…]). Absorbance was measured at 405 nm before and after a 1-h incubation period at 25 °C using a microplate reader (iMark™ Microplate Absorbance Reader; BioRad). Ligand-induced AP-TGFα release was calculated as previously described. The vehicle-treated AP-TGFα release signal was set as a baseline unless otherwise specified. AP-TGFα release signals were fitted with a four-parameter sigmoidal concentration-response curve, from which EC50 and Emax values were obtained, using GraphPad Prism 9 software (GraphPad Prism). Negative values of logarithmically transformed EC50 values (pEC50) were used to calculate the mean and standard error of independent experiments.
(§2) All functional study data were analyzed using Prism 9 (GraphPad) and are presented as mean ± standard error of the mean (SEM) of three independent experiments. Statistical analyses were performed using Prism 9 (GraphPad) with one-way analysis of variance followed by Dunnett’s post-hoc test. Values with p < 0.05 are considered statistically significant.

[2] = target: T2, human H4R D94A mutant (Homo sapiens, UniProt Q9H3N8, D94A); assay: TGFα shedding assay, H4R D94A mutant; format: cell-based; conditions: D94A mutant vs wild type
T2 construct: a mutant H4R (human, full-length, and untagged); expressed in transfected cells; host or cells: HEK293A
T2 sequence (Q9H3N8 whole entry D94A): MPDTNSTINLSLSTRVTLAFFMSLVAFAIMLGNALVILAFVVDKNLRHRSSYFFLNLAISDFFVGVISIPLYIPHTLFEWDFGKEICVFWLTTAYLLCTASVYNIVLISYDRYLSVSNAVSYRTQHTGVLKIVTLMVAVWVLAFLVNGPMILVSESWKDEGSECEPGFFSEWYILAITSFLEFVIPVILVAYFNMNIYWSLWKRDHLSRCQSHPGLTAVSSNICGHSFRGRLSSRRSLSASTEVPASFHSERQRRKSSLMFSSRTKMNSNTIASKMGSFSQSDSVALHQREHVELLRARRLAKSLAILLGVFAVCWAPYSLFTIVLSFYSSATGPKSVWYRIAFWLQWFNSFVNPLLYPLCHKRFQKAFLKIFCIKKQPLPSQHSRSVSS
Protocol: as §1
(§3) All functional study data were analyzed using Prism 9 (GraphPad) and are presented as mean ± standard error of the mean (SEM) of three independent experiments. […]

[3] = target: T3, human H4R Y95A mutant (Homo sapiens, UniProt Q9H3N8, Y95A); assay: TGFα shedding assay, H4R Y95A mutant; format: cell-based; conditions: Y95A mutant vs wild type
T3 construct: a mutant H4R (human, full-length, and untagged); expressed in transfected cells; host or cells: HEK293A
T3 sequence (Q9H3N8 whole entry Y95A): as the sequence (Q9H3N8 whole entry D94A) above, with A94D, Y95A counted along it
Protocol: as §1, §3

[4] = target: T4, human H4R T99A mutant (Homo sapiens, UniProt Q9H3N8, T99A); assay: TGFα shedding assay, H4R T99A mutant; format: cell-based; conditions: T99A mutant; AP-TGFα release; read-out: Emax (%) mean ± SEM
T4 construct: a mutant H4R (human, full-length, and untagged); expressed in transfected cells; host or cells: HEK293A
T4 sequence (Q9H3N8 whole entry T99A): as the sequence (Q9H3N8 whole entry D94A) above, with A94D, T99A counted along it
Protocol: as §1, §2

[5] = target: T5, human H4R N147A mutant (Homo sapiens, UniProt Q9H3N8, N147A); assay: TGFα shedding assay, H4R N147A mutant; format: cell-based; conditions: N147A mutant; AP-TGFα release; read-out: Emax (%) mean ± SEM
T5 construct: a mutant H4R (human, full-length, and untagged); expressed in transfected cells; host or cells: HEK293A
T5 sequence (Q9H3N8 whole entry N147A): as the sequence (Q9H3N8 whole entry D94A) above, with A94D, N147A counted along it
Protocol: as §1, §2

[6] = target: T6, human H4R N147W mutant (Homo sapiens, UniProt Q9H3N8, N147W); assay: TGFα shedding assay, H4R N147W mutant; format: cell-based; conditions: N147W (H1R mimic) mutant vs wild type
T6 construct: a mutant H4R (human, full-length, and untagged); expressed in transfected cells; host or cells: HEK293A
T6 sequence (Q9H3N8 whole entry N147W): as the sequence (Q9H3N8 whole entry D94A) above, with A94D, N147W counted along it
Protocol: as §1, §2

[7] = target: T7, human H4R N147Y mutant (Homo sapiens, UniProt Q9H3N8, N147Y); assay: TGFα shedding assay, H4R N147Y mutant; format: cell-based; conditions: N147Y mutant; AP-TGFα release; read-out: Emax (%) mean ± SEM
T7 construct: a mutant H4R (human, full-length, and untagged); expressed in transfected cells; host or cells: HEK293A
T7 sequence (Q9H3N8 whole entry N147Y): as the sequence (Q9H3N8 whole entry D94A) above, with A94D, N147Y counted along it
Protocol: as §1, §2

[8] = target: T8, human H4R E182N mutant (Homo sapiens, UniProt Q9H3N8, E182N); assay: TGFα shedding assay, H4R E182N mutant; format: cell-based; conditions: E182N (H1R mimic) mutant vs wild type
T8 construct: a mutant H4R (human, full-length, and untagged); expressed in transfected cells; host or cells: HEK293A
T8 sequence (Q9H3N8 whole entry E182N): as the sequence (Q9H3N8 whole entry D94A) above, with A94D, E182N counted along it
Protocol: as §1, §3

[9] = target: T9, human H4R Y319A mutant (Homo sapiens, UniProt Q9H3N8, Y319A); assay: TGFα shedding assay, H4R Y319A mutant; format: cell-based; conditions: Y319A, raw replicates
T9 construct: a mutant H4R (human, full-length, and untagged); expressed in transfected cells; host or cells: HEK293A
T9 sequence (Q9H3N8 whole entry Y319A): as the sequence (Q9H3N8 whole entry D94A) above, with A94D, Y319A counted along it
Protocol: as §1, §2

[10] = target: T10, human H4R F344I mutant (Homo sapiens, UniProt Q9H3N8, F344I); assay: TGFα shedding assay, H4R F344I mutant; format: cell-based; conditions: F344I (H1R mimic) mutant vs wild type
T10 construct: a mutant H4R (human, full-length, and untagged); expressed in transfected cells; host or cells: HEK293A
T10 sequence (Q9H3N8 whole entry F344I): as the sequence (Q9H3N8 whole entry D94A) above, with A94D, F344I counted along it
Protocol: as §1, §2

[11] = target: T11, human H4R Q347A mutant (Homo sapiens, UniProt Q9H3N8, Q347A); assay: TGFα shedding assay, H4R Q347A mutant; format: cell-based; conditions: Q347A mutant; AP-TGFα release; read-out: Emax (%) mean ± SEM
T11 construct: a mutant H4R (human, full-length, and untagged); expressed in transfected cells; host or cells: HEK293A
T11 sequence (Q9H3N8 whole entry Q347A): as the sequence (Q9H3N8 whole entry D94A) above, with A94D, Q347A counted along it
Protocol: as §1, §2

[12] = target: T12, human H4R Q347G mutant (Homo sapiens, UniProt Q9H3N8, Q347G); assay: TGFα shedding assay, H4R Q347G mutant; format: cell-based; conditions: for Shedding assay: Q347G, raw replicates
T12 construct: a mutant H4R (human, full-length, and untagged); expressed in transfected cells; host or cells: HEK293A
T12 sequence (Q9H3N8 whole entry Q347G): as the sequence (Q9H3N8 whole entry D94A) above, with A94D, Q347G counted along it
Protocol: as §1, §2

[13] = target: T13, human H4R W348A mutant (Homo sapiens, UniProt Q9H3N8, W348A); assay: TGFα shedding assay, H4R W348A mutant; format: cell-based; conditions: W348A mutant vs wild type
T13 construct: a mutant H4R (human, full-length, and untagged); expressed in transfected cells; host or cells: HEK293A
T13 sequence (Q9H3N8 whole entry W348A): as the sequence (Q9H3N8 whole entry D94A) above, with A94D, W348A counted along it
Protocol: as §1, §3

[14] = system: H4R; conditions: cited from earlier work
[15] = system: H3R; conditions: cited from earlier work
[16] = system: H1R; conditions: range in words; cited from earlier work
[17] = system: H2R; conditions: range in words; cited from earlier work

Emax [1]: 19.4 ± 1.15%
signaling activity at mutant, in words [2]: loss of activity
signaling activity at mutant, in words [3]: dramatically reduced
Emax [4]: 22.8 ± 4.74%
Emax [5]: 14.1 ± 1.55%
signaling activity at mutant, in words [6]: loss of signaling activity
Emax [7]: 12.7 ± 0.59%
signaling activity at mutant, in words [8]: loss of signaling activity
signaling activity at mutant, in words [10]: did not exhibit histamine activity
Emax [11]: 10.1 ± 0.39%
Shedding assay ([12]; Histamine (M) -7): -1.992
Emax ([12]; Q347G mutant, AP-TGFα release, read-out: Emax (%) mean ± SEM): 8.8 ± 2.03%
signaling activity at mutant, in words [13]: loss of signaling activity
SMILES: NCCc1c[nH]cn1 [Histamine, histamine]
Shedding assay ([9]; Histamine (M) -5): 10.8768 and 12.6921 and 5.241 and 7.176 and 7.908 and 3.094 and 14.7688 and 13.1717 and 9.412
Shedding assay ([9]; Histamine (M) -6): 7.788 and 3.872 and 6.096 and 6.136 and 6.023 and -28.9656 and 4.365 and 5.9934 and -0.2046
Shedding assay ([9]; Histamine (M) -7): 2.44 and -1.231 and 2.155 and 1.85 and -1.394 and -29.3347 and -0.9921 and -1.291 and -2.241
Shedding assay ([9]; Histamine (M) -8): 0.6613 and -7 and -0.6175 and -0.4917 and -2.608 and -5.072 and 0.7937 and -1.913 and -2.583
Shedding assay ([9]; Histamine (M) -9): -1.209 and -22 and -6.981 and -12.6602 and -5.831 and -0.2422 and 1.077 and -0.278 and -3.864
Shedding assay ([9]; Histamine (M) -10): 1.569 and -4.989 and -1.258 and -2.207 and 3.939 and 1.7806 and 0.1134 and -2.911 and -0.5847
Shedding assay ([12]; Histamine (M) -5): 4.036 and 4.533 and 6.034 and 9.629 and 9.888 and 8.1039 and 5.715 and 9.816 and 2.227
Shedding assay ([12]; Histamine (M) -6): 1.244 and 2.414 and 2.709 and 6.101 and 2.59 and 6.7488 and 1.268 and 6.261 and -9.381
Shedding assay ([12]; Histamine (M) -8): -6.39 and -0.908 and -4.351 and 0.1532 and -4.023 and 1.012 and -2.686 and 0.1556 and -3.9539
Shedding assay ([12]; Histamine (M) -9): -4.698 and -2.781 and -3.3698 and 0.654 and -4.363 and -0.5978 and -4.585 and -1.275 and -2.147
Shedding assay ([12]; Histamine (M) -10): -5.104 and -0.2815 and -4.911 and 2.46 and -0.8571 and 1.119 and -8.947 and 3.16 and -0.4453
affinity of H4R ([14]; range in words): nM range
affinity of H3R ([15]; range in words): nM range
affinity of H1R [16]: μM range
affinity of H2R [17]: μM range

SMILES: CN=C(NC#N)NC[C@H]1CC[C@H](c2cnc[nH]2)O1 [OUP-16]
selectivity for H4R ([14]; H4R over H3R): 16 fold
Ki ([14]; read-out: H4R Ki): 125 nM
Ki ([15]; read-out: H3R Ki): 2000 nM
